Among the data in BindingDB's records for doi:10.1021/jm00039a015 (Abbott Laboratories, 1994) are Ki values, retold here.

SMILES strings stand for the structures. Structures can show the parent of a compound that is named as a salt.

The target in the test is Platelet-activating factor receptor (Oryctolagus cuniculus). Kind of test: Antagonist activity against platelet activating factor (PAF) receptor in rabbit platelet membranes using [3H]C18-PAF as radioligand.
With `Cc1ccc2[nH]c(C)c(C(=O)[C@@H]3CSC(c4cccnc4)N3)c2c1` (stereo partly drawn) [(2,5-Dimethyl-1H-indol-3-yl)-((R)-2-pyridin-3-yl-thiazolidin-4-yl)-methanone], the affinity corresponds to a Ki of 33 nM.

As for `Cc1[nH]c2ccccc2c1C(=O)[C@@H]1CSC(c2cccnc2)N1` (stereo partly drawn) [(2-Methyl-1H-indol-3-yl)-((R)-2-pyridin-3-yl-thiazolidin-4-yl)-methanone], the inhibition constant (Ki) (as a rule, the equilibrium dissociation constant of an inhibitor or competing ligand from its target) is 23 nM. The Ki values of the last two compounds are within 1.5-fold of each other. In the case of `O=C(c1c[nH]c2cccc(OCc3ccccc3)c12)[C@@H]1CSC(c2cccnc2)N1` (stereo partly drawn) [(4-Benzyloxy-1H-indol-3-yl)-((R)-2-pyridin-3-yl-thiazolidin-4-yl)-methanone] it was 13 nM.

In turn, `O=C(C1CSC(c2cccnc2)N1)n1ccc2c(Cl)cccc21` (stereo unspecified) [(4-Chloro-indol-1-yl)-(2-pyridin-3-yl-thiazolidin-4-yl)-methanone] gave a Ki of 33 nM. This Ki is about 2.5-fold higher than that of the compound before. The compound `O=C(c1cn(C(=O)c2ccc(Cl)cc2)c2ccccc12)[C@@H]1CSC(c2cccnc2)N1` (stereo partly drawn) [(4-Chloro-phenyl)-[3-((R)-2-pyridin-3-yl-thiazolidine-4-carbonyl)-indol-1-yl]-methanone] gave a Ki of 3.4 nM.

Consider `COc1cc2[nH]cc(C(=O)[C@@H]3CSC(c4cccnc4)N3)c2cc1OC` (stereo partly drawn) [(5,6-Dimethoxy-1H-indol-3-yl)-((R)-2-pyridin-3-yl-thiazolidin-4-yl)-methanone], for which the inhibition constant (Ki) came out at 87 nM. The figure for `O=C(C1CSC(c2cccnc2)N1)n1ccc2cc(OCc3ccccc3)ccc21` (stereo unspecified) [(5-Benzyloxy-indol-1-yl)-(2-pyridin-3-yl-thiazolidin-4-yl)-methanone] is 15 nM. The compound `O=C(c1ccccc1)c1ccc2ccn(C(=O)[C@@H]3CSC(c4cccnc4)N3)c2c1` (stereo partly drawn) [(6-Benzoyl-indol-1-yl)-((R)-2-pyridin-3-yl-thiazolidin-4-yl)-methanone] gave a Ki of 95 nM.

Compound `CCS(=O)(=O)n1cc(C(=O)[C@@H]2CSC(c3cccnc3)N2)c2ccc(OCc3ccccc3)cc21` (stereo partly drawn) [(6-Benzyloxy-1-ethanesulfonyl-1H-indol-3-yl)-((R)-2-pyridin-3-yl-thiazolidin-4-yl)-methanone] registered a Ki of 8.1 nM.

Compound `O=C(c1c[nH]c2cc(OCc3ccccc3)ccc12)[C@@H]1CSC(c2cccnc2)N1` (stereo partly drawn) [(6-Benzyloxy-1H-indol-3-yl)-((R)-2-pyridin-3-yl-thiazolidin-4-yl)-methanone] came in with a Ki of 1.6 nM.

Compound `Cc1[nH]c2cc(OCc3ccccc3)ccc2c1C(=O)[C@@H]1CSC(c2cccnc2)N1` (stereo partly drawn) [(6-Benzyloxy-2-methyl-1H-indol-3-yl)-((R)-2-pyridin-3-yl-thiazolidin-4-yl)-methanone] had a Ki of 16 nM.

As to `O=C([C@@H]1CSC(c2cccnc2)N1)n1ccc2ccc(OCc3ccccc3)cc21` (stereo partly drawn) [(6-Benzyloxy-indol-1-yl)-((R)-2-pyridin-3-yl-thiazolidin-4-yl)-methanone], the Ki is 52 nM. This Ki lies about 3.2-fold higher than the previous one. For `O=C(c1c[nH]c2cc(F)ccc12)[C@@H]1CSC(c2cccnc2)N1` (stereo partly drawn) [(6-Fluoro-1H-indol-3-yl)-((R)-2-pyridin-3-yl-thiazolidin-4-yl)-methanone], the affinity, expressed as Ki, was 5.6 nM.

`COc1ccc2c(C(=O)[C@@H]3CSC(c4cccnc4)N3)c[nH]c2c1` (stereo partly drawn) [(6-Methoxy-1H-indol-3-yl)-((R)-2-pyridin-3-yl-thiazolidin-4-yl)-methanone] came in with a Ki of 9.5 nM.

As for `Cc1ccc2c(C(=O)[C@@H]3CSC(c4cccnc4)N3)c[nH]c2c1` (stereo partly drawn) [(6-Methyl-1H-indol-3-yl)-((R)-2-pyridin-3-yl-thiazolidin-4-yl)-methanone], the affinity, expressed as Ki, was 3.4 nM. This Ki is about 2.8-fold lower than that of the compound before.

The compound `O=C(c1c[nH]c2cc(-c3ccccc3)ccc12)[C@@H]1CSC(c2cccnc2)N1` (stereo partly drawn) [(6-Phenyl-1H-indol-3-yl)-((R)-2-pyridin-3-yl-thiazolidin-4-yl)-methanone] returned a Ki of 14 nM. Take `O=C(c1c[nH]c2c(OCc3ccccc3)cccc12)[C@@H]1CSC(c2cccnc2)N1` (stereo partly drawn) [(7-Benzyloxy-1H-indol-3-yl)-((R)-2-pyridin-3-yl-thiazolidin-4-yl)-methanone; TFA]: the Ki came to 1.1 nM. On to `O=C([C@@H]1CSC(c2cccnc2)N1)n1ccc2cccc(OCc3ccccc3)c21` (stereo partly drawn) [(7-Benzyloxy-indol-1-yl)-((R)-2-pyridin-3-yl-thiazolidin-4-yl)-methanone; compound with oxalic acid], for which the affinity, expressed as Ki, was 385 nM. The figure for `Cc1cccc2c(C(=O)[C@@H]3CSC(c4cccnc4)N3)c[nH]c12` (stereo partly drawn) [(7-Methyl-1H-indol-3-yl)-((R)-2-pyridin-3-yl-thiazolidin-4-yl)-methanone] is 6.5 nM. `O=C(c1cn(CC(F)(F)F)c2ccccc12)[C@@H]1CSC(c2cccnc2)N1` (stereo partly drawn) [((R)-2-Pyridin-3-yl-thiazolidin-4-yl)-[1-(2,2,2-trifluoro-ethyl)-1H-indol-3-yl]-methanone] showed a Ki of 21 nM. As to `O=C(c1ccccc1)c1cccc(NC(=O)[C@@H]2CSC(c3cccnc3)N2)c1` (stereo partly drawn) [(R)-2-Pyridin-3-yl-thiazolidine-4-carboxylic acid (3-benzoyl-phenyl)-amide], the Ki was 7.7 nM. As to `O=C(Nc1cccc(Cl)c1)[C@@H]1CSC(c2cccnc2)N1` (stereo partly drawn) [(R)-2-Pyridin-3-yl-thiazolidine-4-carboxylic acid (3-chloro-phenyl)-amide], the Ki worked out at 208 nM. Turning to `COc1cc(C(=O)c2cccc(NC(=O)[C@@H]3CSC(c4cccnc4)N3)c2)cc(OC)c1OC` (stereo partly drawn) [(R)-2-Pyridin-3-yl-thiazolidine-4-carboxylic acid [3-(3,4,5-trimethoxy-benzoyl)-phenyl]-amide], the Ki is 1.6 nM. Against the preceding compound, the Ki is about 130-fold lower. Compound `O=CN1C(c2cccnc2)SC[C@H]1C(=O)c1c[nH]c2ccccc12` (stereo partly drawn) [(R)-4-(1H-Indole-3-carbonyl)-2-pyridin-3-yl-thiazolidine-3-carbaldehyde] showed a Ki of 220 nM. The figure for `CC(C)(C)OC(=O)N1C(c2cccnc2)SC[C@H]1C(=O)c1c[nH]c2ccccc12` (stereo partly drawn) [(R)-4-(1H-Indole-3-carbonyl)-2-pyridin-3-yl-thiazolidine-3-carboxylic acid tert-butyl ester] is 9750 nM. On to `O=C(c1cn(C(=O)N2CCOCC2)c2ccccc12)[C@@H]1CSC(c2cccnc2)N1` (stereo partly drawn) [Morpholin-4-yl-[3-((R)-2-pyridin-3-yl-thiazolidine-4-carbonyl)-indol-1-yl]-methanone], for which the Ki worked out at 1.5 nM. This Ki lies about 6500-fold lower than the previous one.

As to `CNC(=O)Cn1cc(C(=O)[C@@H]2CSC(c3cccnc3)N2)c2ccccc21` (stereo partly drawn) [N-Methyl-2-[3-((R)-2-pyridin-3-yl-thiazolidine-4-carbonyl)-indol-1-yl]-acetamide], the affinity, expressed as Ki, was 2.4 nM. The figure for `O=C(Nc1cccc(Cl)c1)c1ccn2c1CSC2c1cccnc1` (stereo unspecified) [RP-52770] is 274 nM; for `Cc1ccc2c(c1)c(C(=O)[C@@H]1CSC(c3cccnc3)N1)c(C)n2C(=O)N1CCOCC1` (stereo partly drawn) [[2,5-Dimethyl-3-((R)-2-pyridin-3-yl-thiazolidine-4-carbonyl)-indol-1-yl]-morpholin-4-yl-methanone] it is 36 nM.

In the case of `Cc1c(C(=O)[C@@H]2CSC(c3cccnc3)N2)c2ccccc2n1C(=O)N1CCOCC1` (stereo partly drawn) [[2-Methyl-3-((R)-2-pyridin-3-yl-thiazolidine-4-carbonyl)-indol-1-yl]-morpholin-4-yl-methanone], the Ki came to 88 nM. The compound `O=C(O)Cn1cc(C(=O)[C@@H]2CSC(c3cccnc3)N2)c2ccccc21` (stereo partly specified) [[3-(2-Pyridin-3-yl-thiazolidine-4-carbonyl)-indol-1-yl]-acetic acid] came in with a Ki of 30 nM. `CCOC(=O)Cn1cc(C(=O)[C@@H]2CSC(c3cccnc3)N2)c2ccccc21` (stereo partly drawn) [[3-((R)-2-Pyridin-3-yl-thiazolidine-4-carbonyl)-indol-1-yl]-acetic acid ethyl ester] displayed a Ki of 1.2 nM.

Consider `O=C(c1c[nH]c2cc(OCc3ccc(F)cc3)ccc12)[C@@H]1CSC(c2cccnc2)N1` (stereo partly drawn) [[6-(4-Fluoro-benzyloxy)-1H-indol-3-yl]-((R)-2-pyridin-3-yl-thiazolidin-4-yl)-methanone], for which affinity was put at a Ki of 1.6 nM. In turn, `O=C(c1c[nH]c2cc(Oc3ccc(F)cc3)ccc12)[C@@H]1CSC(c2cccnc2)N1` (stereo partly drawn) [[6-(4-Fluoro-phenoxy)-1H-indol-3-yl]-((R)-2-pyridin-3-yl-thiazolidin-4-yl)-methanone] registered a Ki of 1.9 nM.

As to `O=C(c1c[nH]c2cc(OCc3cccnc3)ccc12)[C@@H]1CSC(c2cccnc2)N1` (stereo partly drawn) [[6-(Pyridin-3-ylmethoxy)-1H-indol-3-yl]-((R)-2-pyridin-3-yl-thiazolidin-4-yl)-methanone], the Ki was 37 nM. `O=C(c1cn(C(=O)N2CCOCC2)c2cc(OCc3ccccc3)ccc12)[C@@H]1CSC(c2cccnc2)N1` (stereo partly drawn) [[6-Benzyloxy-3-((R)-2-pyridin-3-yl-thiazolidine-4-carbonyl)-indol-1-yl]-morpholin-4-yl-methanone]: the affinity corresponds to a Ki of 10 nM.
